# According to PubChem BioAssay AID1996:
# Details: buffer; pH 7.4; 200.0 µM
row,Structure (SMILES),solubility kinetic [µg/mL]
1,COc1ccc(NS(=O)(=O)c2cn(C)c(=O)n(C)c2=O)cc1,> 48.8
2,C1=NCCc2c1[nH]c1ccccc21.[O-][Cl+3]([O-])([O-])O,> 40.6
3,CC(OC(=O)CN1C(=O)c2ccccc2C1=O)C(=O)NC1CCCC1 (centres undefined),> 51.7
4,COc1ccc(Nc2cc(Nc3ccccc3)ncn2)cc1,< 0.2
5,OCC1(CO)COC(c2ccccc2)=N1,> 31.1
6,CCCCCCCCCCCC(=O)N1CC(=O)NC(=O)C1,2.5
7,Cc1cnc(C(=O)OCC(=O)NC(=O)c2ccccc2)cn1,> 44.9
8,Cc1ccccc1OCCC(=O)OCC(=O)NC1CCCCC1,> 47.9
9,CC(C)N(C(=S)Nc1cccnc1)c1ccccc1,32.8
10,O=C(CC12CC3CC(CC(C3)C1)C2)NC1CC1,30
11,CCOC(=O)N1CCN(CCC(=O)c2ccc(Cl)cc2)CC1.Cl,> 48.7
12,O=C(O)C1CCN(C(=O)CSc2nnc3ccccn23)CC1,> 48.1
13,COC(=O)c1cc(OC)nc2ccc(Br)cc12,< 0.6
14,O=C(O)c1cccnc1C(=O)c1ccccc1,31.9
15,CCOC(=O)C1CCCN(C(=O)CSc2nnc3nc(C)cc(C)n23)C1 (centres undefined),> 56.6
16,Cc1cccc(-c2nc(C#N)c(N3CCCCC3)o2)c1,0.4
17,Cc1ccc(C)c(NC(=O)NC2CCCCCCC2)c1,< 0.3
18,CC1CCCC(NC(=O)CCNC(=O)c2ccc([N+](=O)[O-])cc2)C1C (centres undefined),> 52.1
19,COc1ccccc1N1C(=O)c2cccnc2C1=O,34.9
20,O=C1NC2=C(C(=O)CCC2)C(c2ccc([N+](=O)[O-])cc2)N1 (centres undefined),> 43.1

row,Structure (SMILES),solubility kinetic [µg/mL]
1,COCCNC(=O)[C@@H]1CSC2c3ccccc3C(=O)N21 (some centres undefined),> 43.9
2,COc1ccc(NC(=O)C2CCCN(S(C)(=O)=O)C2)c(OC)c1 (centres undefined),> 51.4
3,Cc1ccc(S(=O)(=O)N(C)CC(=O)N2CCC(C(N)=O)CC2)cc1,> 53
4,CN1CCC(NC(=S)NC2CC2)CC1,> 32
5,Cc1nc(SCC(=O)Nc2ccc(S(=O)(=O)N3CCOCC3)cc2)c2c(C)c(C)sc2n1,7.3
6,Nc1nnc(SCC(=O)OCC(=O)c2ccccc2)s1,> 46.4
7,Cc1cc(C(=O)COC(=O)/C=C/c2cccc(F)c2)c(C)n1C,< 0.7
8,Cn1cccc1C(C#N)(CC#N)c1cccc(F)c1C#N (centres undefined),40.4
9,CCN(CC)S(=O)(=O)c1cccc(C(=O)N[C@H](C(=O)NC2=NCCS2)C(C)C)c1,64.5
10,C/C(=N\O)c1cc(Cl)ccc1O,> 27.8
11,CSc1ccc(C2Nc3cccc4cccc(c34)N2)cc1,2.4
12,CC1CCc2cc(F)ccc2N1S(=O)(=O)c1ccc(F)cc1 (centres undefined),2.4
13,CCN(CCCl)Cc1ccccc1Br.Cl,42.1
14,CC1CCCN(S(=O)(=O)c2ccc([N+](=O)[O-])cc2)C1 (centres undefined),2.9
15,CC1CCCC(NC(=O)c2ccc3c(c2)NC(=O)CS3)C1C (centres undefined),5.3
16,CN(C1CCCCC1)S(=O)(=O)c1ccc2[nH]c(=O)oc2c1,> 46.6
17,CNc1nc(C)c([N+](=O)[O-])c(Nc2ccc(OC)cc2)n1,0.5
18,CCOC(=O)C1CCN(C(=O)COC(=O)CSc2ccccc2C)CC1,> 56.9
19,COc1ccc2c(C=O)cn(C)c2c1,> 28.4
20,COc1ccc(C(C)(C)C)cc1NC(=O)COC(=O)CN1C(=O)NC2(CCCCC2C)C1=O (centres undefined),38

row,Structure (SMILES),solubility kinetic [µg/mL]
1,CCOc1ccc(NC(=O)COC(=O)CN2CCCCCC2=O)cc1,> 52.3
2,O=[N+]([O-])c1ccc(OCCn2cnc3ccccc32)cc1,7.6
3,COc1ccc(-c2c(C#N)c(N)nc3c2CCC3)cc1,0.3
4,CC(C)(C)c1csc(NC(=O)CCc2ccccc2)n1,2.1
5,COc1ccc(OC)c(-c2cc(C(=O)N3CCOCC3)no2)c1,> 47.7
6,O=[N+]([O-])c1ccc(-c2cnc[nH]2)cc1,> 28.4
7,Cc1ccc(NC(=O)CCC(=O)NNC(=O)C(C)(C)C)c(C)c1,> 47.9
8,Cc1ccc(NC(=O)C23CCC(C)(C(=O)[C@H]2Br)C3(C)C)cc1 (some centres undefined),43.2
9,CCN1CCCC1CNC(=O)c1cc2cc(OC)c(OC)cc2[nH]1 (centres undefined),> 49.7
10,Cc1ccc(S(=O)(=O)N2CCCCC2)cc1NC(=O)c1cc(F)c(F)c(F)c1F,4.7
11,COC(=O)C1=C(C)NC(=O)NC1c1ccco1 (centres undefined),27.8
12,O=C(Nc1ccccc1)OCc1cncs1,> 35.1
13,CCCn1c(C(C)NS(=O)(=O)c2ccccc2)n[nH]c1=S (centres undefined),> 49
14,CC1CCCN(CC(=O)c2ccc(Cl)c(Cl)c2)C1 (centres undefined),26
15,COc1cc(C)ccc1Oc1nc(-c2ccccc2O)nc2ccccc12,< 0.4
16,CN1C(=O)CCC(CCC(=O)O)(c2ccccc2O)C1=O (centres undefined),> 43.7
17,NS(=O)(=O)c1ccc(-n2cccc2C=O)cc1,36.1
18,O=C(COC(=O)/C=C/c1ccccc1[N+](=O)[O-])Nc1ccc(S(=O)(=O)N2CCOCC2)cc1,24
19,O=C(NC(=O)N1CCCCC1)c1ccccc1,31.7
20,Cc1ccccc1OCCCN1CCOCC1,31.3

# Continued, values first:
row,solubility kinetic [µg/mL],Structure (SMILES)
1,39.8,Cc1ccc(S(=O)(=O)N(C)C)cc1NC(=O)c1cccs1
2,0.7,Cc1cccc(CC2S/C(=N/c3cccc(C)n3)NC2=O)c1 (centres undefined)
3,7.9,Nc1c(Cl)nc(-c2ccccc2)nc1Cl
4,13.3,Clc1nccc(N2CCN(c3ccccc3Cl)CC2)n1
5,34.5,CC(=O)c1cc(C(=O)Nc2ccc3ccccc3c2)c(C)o1
6,44,O=C(CSc1ccc2c(c1)OCCO2)NCc1ccccc1
7,32.5,Cn1cccc1C1CCCN1CC(=O)Nc1c(Cl)cc(Cl)cc1Cl (centres undefined)
8,> 47.7,COc1ccc(C(O)c2ncc(C(F)(F)F)cc2Cl)cc1 (centres undefined)
9,< 0.4,O=C(/C=C/c1ccc(Cl)cc1)Nc1ccc(Br)cn1
10,29.5,Cc1cc(C(=O)NC2CC2)c2ccccc2n1
11,37,O=C(CN1C(=O)c2ccccc2C1=O)Nc1cccc(O)c1
12,< 0.6,O=C(Nc1cccc2c1CCCC2)c1cccc(F)c1
13,0.5,COc1ccc(-c2csc(NC(=O)c3ccccc3F)n2)cc1
14,> 39.5,O=C(O)c1ccc(COc2ccc([N+](=O)[O-])cc2)o1
15,> 43.4,O=C(Nc1cccnc1N1CCOCC1)c1cccs1
16,> 35.4,Nc1c(Cl)ncnc1NCc1cccnc1
17,> 40.4,O=C(NCCCn1ccnc1)c1cc2ccccc2o1
18,6.2,Cc1ccc(C(C)NC(=S)NCc2ccc(F)cc2)cc1C (centres undefined)
19,< 0.7,CCCC(=O)NC(c1ccccc1)c1c(O)ccc2ccccc12 (centres undefined)
20,13.7,Cc1c(O)ccc(C(=O)CN2CCN(c3ccccc3F)CC2)c1O

row,solubility kinetic [µg/mL],Structure (SMILES)
1,> 45.2,CN1C(=O)NC(c2cccc([N+](=O)[O-])c2)C2=C1CCCC2=O (centres undefined)
2,10.8,CC(C)(C)c1ccccc1NC(=O)c1cc(-c2ccncc2)nc2ccccc12
3,> 60.2,O=C(O)c1ccccc1-c1ccccc1C(=O)Nc1ccc(OC(F)(F)F)cc1
4,36.6,COc1cccc(OCC(=O)N(C)Cc2nc(-c3ccccc3)no2)c1
5,26.1,COc1ccc(CNC(=O)C(C)N(C)Cc2cccc(F)c2)cc1 (centres undefined)
6,6.9,N#Cc1ccccc1OCC(=O)Nc1ccc(S(=O)(=O)N2CCOCC2)cc1
7,> 39.5,Cc1c(C(=O)NC2CCOC2)oc2c(F)cccc12 (centres undefined)
8,37.5,Cc1ccccc1C(=O)Nc1ccc2nc3n(c(=O)c2c1)CCCC3
9,> 66.4,CCC1(c2ccc(F)cc2)NC(=O)N(CC(=O)N2CCN(C(=O)c3ccco3)CC2)C1=O (centres undefined)
10,27,CC1CCCN(Cc2nc(Cc3ccccc3Cl)no2)C1 (centres undefined)
11,> 44.3,O=C1NCCN/C1=C\C(=O)c1cccc(Br)c1
12,53,C#CCOc1ccc2ccccc2c1/C=C(/C#N)c1ccc(C(=O)O)cc1
13,6.2,CCCC(NC(=O)c1ccc(Br)o1)c1nc2ccccc2[nH]1 (centres undefined)
14,> 49,CC(Sc1nc2ccc(C(=O)c3ccccc3)cc2[nH]1)C(=O)O (centres undefined)
15,32.5,O=C1CCc2ccccc2N1Cc1ccccc1
16,21.6,Cc1ccc2c(COC(=O)CNS(=O)(=O)c3ccccc3)cc(=O)oc2c1
17,13.2,O=C(NC1CCCc2ccccc21)c1cc(Cl)ccn1 (centres undefined)
18,39.4,O=c1c2cc(Br)ccc2nc(-c2ccccc2)n1O
19,1.6,COc1ccc(-c2cc(C(=O)NC3CC3)c3ccccc3n2)cc1
20,2.9,COc1ccc(C(=O)Nc2ccc(S(=O)(=O)N3CCOCC3)cc2)cc1

row,solubility kinetic [µg/mL],Structure (SMILES)
1,5.3,O=C(Cc1cccs1)Nc1nc(-c2cccnc2)cs1
2,32.1,O=C(NCCC(=O)N1CCc2ccccc21)c1ccccc1Cl
3,30.8,COc1ccc(CNC(=O)c2coc(=O)c3ccccc23)cc1
4,< 0.4,Cc1ccc(C(=O)Nc2ccc(Nc3ccccc3)cc2)cc1Br
5,34.2,O=C1/C(=C/c2ccncc2)CCc2ccccc21
6,> 60.1,Cc1cc(NS(=O)(=O)c2ccc(NC(=O)c3ccc(F)cc3)cc2)nc(C)n1
7,> 45.6,CC(C)N1CC(COc2ccc(Cl)cc2Cl)OC1=O (centres undefined)
8,> 50.8,CC(C)C(NC(=O)c1ccc(Cl)cc1)C(=O)NCC1CCCO1 (centres undefined)
9,> 33.6,O=C(O)CNC(=S)NCc1ccccc1
10,30.5,O=C(NCCNC(=O)c1ccco1)c1ccco1
11,15,O=C(NCc1ccc2c(c1)OCO2)c1c(Cl)cccc1Cl
12,> 56.2,Cn1c(N)c(C(=O)COC(=O)CNC(=O)c2ccccc2)c(=O)n(C)c1=O
13,> 47.7,Cc1cccc(NC(=O)CCNC(=O)c2ccccc2Cl)n1
14,7.1,O=C(NCc1nc(-c2ccc(C(F)(F)F)cc2)no1)c1cccs1
15,0.5,O=C(Nc1nccs1)c1ccc(-c2ccc(F)c(Cl)c2)o1
16,42.3,Cc1ccc(C(=O)NCC(=O)N2CCCCCCC2)cc1
17,> 46.2,COC(=O)c1ccc(C[n+]2ccccc2)cc1.[Br-]
18,11,Cc1ccc(S(=O)(=O)N2CCC(C(=O)OCC(=O)NCc3cccc(Cl)c3)CC2)cc1C
19,24.8,Cc1cc(C)cc(NCc2ccncc2)c1
